These results are taken from paper PMC6259134, “Synthesis, Antimycobacterial, Antifungal and Photosynthesis-Inhibiting Activity of Chlorinated N-phenylpyrazine-2-carboxamides” (Molecules, 2010).

Series [1] relates to M. tuberculosis H37Rv (ATCC27294). As to the kind of experiment: In vitro antimycobacterial primary screening (TAACF, BACTEC 460 / MABA). The series is classed as cell-based. To be noted: Mycobacterium tuberculosis, read-out: Antimycobacterial evaluation Inhibition. The protocol: All compounds were assayed in vitro against M. tuberculosis H37Rv. […] None of the tested derivatives overcame this limit, see Table 2.
Antimycobacterial evaluation was carried out in the tuberculosis antimicrobial acquisition and coordinating facility (TAACF), Southern Research Institute, Birmingham, AL, U.S.A., which is a part of the National Institutes of Health (NIH). Primary screening of all compounds was conducted at 6.25 µg/mL against M. tuberculosis H37Rv (ATCC27294) in BACTEC 12B medium using both BACTEC 460 radiometric system and the Microplate Alamar Blue Assay (MABA). For the results see Table 2.

Series [2] can be described thus: Lipophilicity determination by RP-HPLC (capacity factor k / log k, distributive π parameters). The conditions noted are these: for log k: RP-HPLC, C18, MeOH 70%/H2O 30%, isocratic; for π determined Ph: distributive parameter of phenyl substituents; for π determined Ph / π determined Pyr: calculated from log k; for π determined Pyr: distributive parameter of pyrazine substituents. The format is physicochemical. The protocol: The procedure was performed under isocratic conditions with methanol as an organic modifier in the mobile phase using an end-capped non-polar C18 stationary RP column. The results are shown in Table 1 and illustrated in Figure 2. Waters Alliance 2695 XE HPLC separation module and Waters Photodiode Array Detector 2996 (Waters Corp., Milford, MA, USA) were used. Waters Symmetry® C18 5 μm, 4.6 ° 250 mm, Part No. WAT054275 (Waters Corp., Milford, MA, USA) chromatographic column was used. The HPLC separation process was monitored by Empower™ 2 Chromatography Data Software, Waters 2009 (Waters Corp., Milford, MA, USA). The mixture of MeOH (HPLC grade, 70%) and H2O (HPLC–Mili-Q Grade, 30%) was used as a mobile phase. The total flow rate of the column was 1.0 mL/min, injection volume 30 μL, column temperature 30 °C and sample temperature 10 °C were used. The detection wavelength of 210 nm was chosen. The KI methanolic solution was used for the dead time (tD) determination. Retention times (tR) were measured in minutes. The capacity factors k were calculated using the Empower™ 2 Chromatography Data Software according to formula k = (tR - tD)/tD, where tR is the retention time of the solute, whereas tD denotes the dead time obtained using an unretained analyte. Log k, calculated from the capacity factor k, is used as the lipophilicity index converted to log P scale. Distributive π parameters characterizing lipophilicity of the individual substituents were calculated according to the formula π = log kS – log kU, where log kS is the determined capacity factor logarithm of the individual substituted compounds, whereas log kU denotes the determined capacity factor logarithm of the unsubstituted compound, it means π = 0.

Series [3] concerns photosynthetic electron transport (PET) in spinach chloroplasts. Nature of the series: Inhibition of photosynthetic electron transport (PET) in spinach chloroplasts (DCPIP photoreduction). The format is biochemical, Spinacia oleracea L. The protocol:
The activity of the majority of the studied compounds was moderate or low relative to the standard. Chloroplasts were prepared from spinach (Spinacia oleracea L.) according to Masarovičová and Kráľová [26]. […] [27], and the rate of photosynthetic electron transport was monitored as a photoreduction of DCPIP. The measurements were carried out in phosphate buffer (0.02 mol/L, pH 7.2) containing sucrose (0.4 mol/L), MgCl2 (0.005 mol/L) and NaCl (0.015 mol/L). The chlorophyll content was 30 mg/L in these experiments and the samples were irradiated (~100 W/m^2) from 10 cm distance with a halogen lamp (250 W) using a 4 cm water filter to prevent warming of the samples (suspension temperature 22 °C). The studied compounds were dissolved in DMSO due to their limited water solubility. […] The inhibitory efficiency of the studied compounds was manifested by IC50 values, i.e. by molar concentration of the compounds causing 50% decrease in the […] relative to the untreated control.

Details of series [4]: method as in PMID 1151976, doi:10.1002/9780470171912.ch3. To be noted: Hammett's constant of R3 phenyl substituent; cited from earlier work.
For series [5], the system named is Trichophyton mentagrophytes 445. Nature of the series: In vitro antifungal susceptibility testing (microdilution broth method). The series is classed as cell-based. The conditions noted are these: T. mentagrophytes, MIC for moulds determined as IC50 value; for MIC: Trichophyton mentagrophytes, 445, read-out: Antifungal susceptibility MIC.

SMILES strings stand for the structures. In brackets after ≈: the same amount, converted by molar mass. Where two headings read alike, the source gives them in different places.

For orientation: inhibition means the relative decrease from the control value, in per cent. What is called IC50 is the concentration that gives 50% inhibition. Read a high IC50 as weaker potency in that assay. As a reminder, the MIC is the least concentration at which growth counts as inhibited. Regarding `O=C(Nc1cccc(Cl)c1)c1cnccn1` [Compound 1, Pyrazine-2-carboxylic acid (3-chlorophenyl)amide], the inhibition at 6.25 µg/mL in series [1] was 14%. Besides, in series [2], the log k amounted to 0.4914, the “π determined Ph” value is 0.08 and the “π determined Pyr” value is listed as 0.00. In addition, the IC50 in series [3] stood at 290 µM. Moreover, the σ in series [4] is given as 0.373. For the same compound, the MIC in series [5] (after 72 h) came to 500 µM (≈ 117 µg/mL). Moreover, the MIC in series [5] (after 120 h) was above 500 µM.

For `O=C(Nc1cccc(Cl)c1)c1cncc(Cl)n1` [Compound 2, 6-Chloropyrazine-2-carboxylic acid (3-chlorophenyl)amide], the inhibition at 6.25 µg/mL in series [1] was 14%. Further, in series [2], the log k was found to be 0.7864, the “π determined Ph” value is listed as 0.10 and the “π determined Pyr” value was 0.30. This compound also gave a 50% inhibitory concentration (IC50) in series [3] of 262 µM. The σ in series [4] was 0.373. In addition, the MIC in series [5] (after 72 h) was 125 µM (≈ 33.5 µg/mL). The MIC in series [5] (after 120 h) came out at 125 µM (≈ 33.5 µg/mL).

With `CC(C)(C)c1cnc(C(=O)Nc2cccc(Cl)c2)cn1` [Compound 3, 5-tert-Butylpyrazine-2-carboxylic acid (3-chlorophenyl)amide], the inhibition at 6.25 µg/mL in series [1] turned out to be 0%. This compound also displayed a log k in series [2] of 1.0996. In addition, the IC50 in series [3] is 95.5 µM. Further, the σ in series [4] was 0.373. The MIC in series [5] (after 72 h) and in series [5] (after 120 h) was above 250 µM throughout.

Take `CC(C)(C)c1ncc(C(=O)Nc2cccc(Cl)c2)nc1Cl` [Compound 4, 5-tert-Butyl-6-chloropyrazine-2-carboxylic acid (3-chlorophenyl)amide]: the inhibition at 6.25 µg/mL in series [1] is 0%. In series [2], the log k is given as 1.4896, the “π determined Ph” value is reported as 0.25 and the “π determined Pyr” value is on record as 1.00. Further, the IC50 in series [3] came out at 101 µM. The σ in series [4] is recorded as 0.373. The MIC in series [5] (after 72 h) is above 250 µM. Also, the MIC in series [5] (after 120 h) is above 250 µM.

Take `O=C(Nc1ccc(Cl)cc1)c1cnccn1` [Compound 5]: the inhibition at 6.25 µg/mL in series [1] was determined as 4%. Besides, in series [2], the log k is on record as 0.4987, the “π determined Ph” value is 0.09 and the “π determined Pyr” value is 0.00. The same compound showed an IC50 in series [3] of 1520 µM. Also, in series [4], the σ is given as 0.227. Besides, the MIC in series [5] (after 72 h) was above 250 µM. The MIC in series [5] (after 120 h) is above 250 µM.

On to `O=C(Nc1ccc(Cl)cc1)c1cncc(Cl)n1` [Compound 6, 6-chloro-N-(4-chlorophenyl)pyrazine-2-carboxamide], for which the inhibition at 6.25 µg/mL in series [1] turned out to be 65%. In series [2], the log k is 0.8185, the “π determined Ph” value is 0.13 and the “π determined Pyr” value is 0.32. Also, the IC50 in series [3] is 486 µM. Also, the σ in series [4] is 0.227. For the same compound, the MIC in series [5] (after 72 h) was above 500 µM. In addition, the MIC in series [5] (after 120 h) is above 500 µM.

With `CC(C)(C)c1cnc(C(=O)Nc2ccc(Cl)cc2)cn1` [Compound 7], the inhibition at 6.25 µg/mL in series [1] turned out to be 0%. Besides, in series [2], the log k turned out to be 1.1043, the “π determined Ph” value is 0.16 and the “π determined Pyr” value was 0.61. Besides, the σ in series [4] is reported as 0.227. For the same compound, the MIC in series [5] (after 72 h) was above 250 µM. Further, the MIC in series [5] (after 120 h) is above 250 µM.

With `CC(C)(C)c1ncc(C(=O)Nc2ccc(Cl)cc2)nc1Cl` [Compound 8, 6-chloro-5-tert-butyl-N-(4-chlorophenyl)pyrazine-2-carboxamide], the inhibition at 6.25 µg/mL in series [1] worked out at 24%. Further, in series [2], the log k amounted to 1.5015, the “π determined Ph” value was 0.26 and the “π determined Pyr” value is 1.00. This compound also yielded a concentration for half-maximal inhibition (IC50) in series [3] of 43 µM. In series [4], the σ is reported as 0.227. For the same compound, in series [5] (after 72 h), the MIC is above 250 µM. Besides, the MIC in series [5] (after 120 h) was above 250 µM.

`O=C(Nc1c(Cl)cccc1Cl)c1cnccn1` [Compound 9, N-(2,6-dichlorophenyl)pyrazine-2-carboxamide]: the inhibition at 6.25 µg/mL in series [1] was found to be 0%. Further, in series [2], the log k stood at 0.6656, the “π determined Ph” value is recorded as 0.25 and the “π determined Pyr” value is on record as 0.00. For the same compound, in series [4], the σ was 0.40. In addition, in series [5] (after 72 h), the MIC was above 500 µM. In addition, the MIC in series [5] (after 120 h) was above 500 µM.

For `O=C(Nc1c(Cl)cccc1Cl)c1cncc(Cl)n1` [Compound 10, 6-Chloro-N-(2,6-dichlorophenyl)pyrazine-2-carboxamide], in series [1], the inhibition at 6.25 µg/mL was determined as 0%. Besides, in series [2], the log k is 0.9456. The same compound registered an IC50 in series [3] of 829 µM. Besides, the σ in series [4] is reported as 0.40. In addition, the MIC in series [5] (after 72 h) and in series [5] (after 120 h) was above 250 µM throughout.

On to `CC(C)(C)c1cnc(C(=O)Nc2c(Cl)cccc2Cl)cn1` [Compound 11, 5-tert-Butyl-N-(2,6-dichlorophenyl)pyrazine-2-carboxamide], for which, in series [1], the inhibition at 6.25 µg/mL is 0%. In addition, in series [2], the log k is recorded as 1.2802, the “π determined Ph” value is recorded as 0.34 and the “π determined Pyr” value is listed as 0.61. In series [3], this compound gave an IC50 of 153 µM. The σ in series [4] is given as 0.40. The MIC in series [5] (after 72 h) stood at 250 µM (≈ 81.1 µg/mL). The MIC in series [5] (after 120 h) was determined as 250 µM (≈ 81.1 µg/mL).

For `CC(C)(C)c1ncc(C(=O)Nc2c(Cl)cccc2Cl)nc1Cl` [Compound 12, 5-tert-Butyl-6-chloro-N-(2,6-dichlorophenyl)pyrazine-2-carboxamide], the inhibition at 6.25 µg/mL in series [1] came to 0%. Also, in series [2], the log k is 1.6631, the “π determined Ph” value was 0.42 and the “π determined Pyr” value is 1.00. Also, in series [3], the IC50 stood at 61 µM. Further, the σ in series [4] is reported as 0.40. Further, the MIC in series [5] (after 72 h) is 125 µM (≈ 44.8 µg/mL). Besides, the MIC in series [5] (after 120 h) was determined as 125 µM (≈ 44.8 µg/mL).

`O=C(Nc1ccc(Cl)c(Cl)c1)c1cnccn1` [Compound 13]: in series [1], the inhibition at 6.25 µg/mL was 8%. In addition, in series [2], the log k is given as 0.6962, the “π determined Ph” value was 0.30 and the “π determined Pyr” value was 0.00. Further, in series [4], the σ is recorded as 0.60. Also, in series [5] (after 72 h), the MIC is above 250 µM. Besides, the MIC in series [5] (after 120 h) is above 250 µM.

In the case of `O=C(Nc1ccc(Cl)c(Cl)c1)c1cncc(Cl)n1` [Compound 14, 6-chloro-N-(3,4-dichlorophenyl)pyrazine-2-carboxamide], the inhibition at 6.25 µg/mL in series [1] was 61%. In series [2], the log k was 0.9950, the “π determined Ph” value is recorded as 0.31 and the “π determined Pyr” value is 0.28. This compound showed an IC50 in series [3] of 105 µM. Moreover, the σ in series [4] is recorded as 0.60. For the same compound, in series [5] (after 72 h), the MIC was found to be 125 µM (≈ 37.8 µg/mL). Besides, the MIC in series [5] (after 120 h) came out at 250 µM (≈ 75.6 µg/mL).

For the compound `CC(C)(C)c1cnc(C(=O)Nc2ccc(Cl)c(Cl)c2)cn1` [Compound 15], the inhibition at 6.25 µg/mL in series [1] came out at 15%. Further, in series [2], the log k is 1.3395, the “π determined Ph” value is on record as 0.40 and the “π determined Pyr” value is given as 0.62. Further, the σ in series [4] was 0.60. Also, the MIC in series [5] (after 72 h) was determined as 125 µM (≈ 40.5 µg/mL). In addition, in series [5] (after 120 h), the MIC was determined as 125 µM (≈ 40.5 µg/mL).

In the case of `OC(Cn1cncn1)(Cn1cncn1)c1ccc(F)cc1F` [FLU, fluconazole, reference compound], the “Antifungal susceptibility MIC” value in series [5] (after 120 h) was determined as 3.91 µM. The figures for the MIC in series [5] (after 72 h) and in series [5] (after 120 h) were 1.95 µM (≈ 0.597 µg/mL) and 3.91 µM (≈ 1.2 µg/mL), respectively.
